Tests used:
sugar beet = assay: Test B pre/postemergence sugar beet; type: in vivo, Beta vulgaris
How it was run: (§1)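 Test chemicals in a non-phytotoxic solvent mixture with surfactant were sprayed preemergence onto planted seeds and postemergence onto plants 2 to 18 cm tall (1- to 4-leaf stage). After twelve to sixteen days in a greenhouse, injury was visually rated against untreated controls from 0 (no effect) to 10 (complete control).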

cocklebur = assay: Test B pre/postemergence cocklebur; type: in vivo, Xanthium strumarium
How it was run: as §1

blackgrass = assay: Test B pre/postemergence blackgrass; type: in vivo, Alopecurus myosuroides
How it was run: as §1

smallflower flatsedge = assay: Test B flood test smallflower flatsedge; type: in vivo, Cyperus difformis
How it was run: (§2)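 Plants were grown to the 2-leaf stage before treatment with test chemical, then held in a greenhouse for twelve to sixteen days. Injury was visually rated against untreated controls on a 0–10 scale, where 0 is no effect and 10 is complete control.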

rape = assay: Test B pre/postemergence rape; type: in vivo, Brassica napus
How it was run: as §1

duck salad = assay: Test B flood test duck salad; type: in vivo, Heteranthera limosa
How it was run: as §2

purple nutsedge = assay: Test B pre/postemergence purple nutsedge; type: in vivo, Cyperus rotundus
How it was run: as §1

wheat = assay: Test B pre/postemergence wheat; type: in vivo, Triticum aestivum
How it was run: as §1

rice = assay: Test B flood test rice; type: in vivo, Oryza sativa
How it was run: as §2

bamyardgrass = assay: Test B flood test barnyardgrass; type: in vivo, Echinochloa crus-galli
How it was run: as §2

wild oat = assay: Test B pre/postemergence wild oat; type: in vivo, Avena fatua
How it was run: as §1

crabgrass = assay: Test B pre/postemergence crabgrass; type: in vivo, Digitaria sanguinalis
How it was run: as §1

morningglory = assay: Test B pre/postemergence morningglory; type: in vivo, Ipomoea hederacea
How it was run: as §1

surinam grass = assay: Test B pre/postemergence surinam grass; type: in vivo, Brachiaria decumbens
How it was run: as §1

giant foxtail = assay: Test B pre/postemergence giant foxtail; type: in vivo, Setaria faberii
How it was run: as §1

bedstraw = assay: Test B pre/postemergence bedstraw; type: in vivo, Galium aparine
How it was run: as §1

velvetleaf = assay: Test B pre/postemergence velvetleaf; type: in vivo, Abutilon theophrasti
How it was run: as §1

soybean = assay: Test B pre/postemergence soybean; type: in vivo, Glycine max
How it was run: as §1

pigweed = assay: Test B pre/postemergence pigweed; type: in vivo, Amaranthus retroflexus
How it was run: as §1

corn = assay: Test B pre/postemergence corn; type: in vivo, Zea mays
How it was run: as §1

[1] = Preemergence, Rate 62 g/ha, scale of 0 to 10 where 0 is no effect and 10 is complete control
[2] = Preemergence, Rate 250 g/ha, scale of 0 to 10 where 0 is no effect and 10 is complete control
[3] = Preemergence, Rate 500 g/ha, scale of 0 to 10 where 0 is no effect and 10 is complete control
[4] = Rate 125 g/ha, Preemergence, scale of 0 to 10 where 0 is no effect and 10 is complete control
[5] = Rate 500 g/ha, Postemergence, scale 0 to 10, 0 no effect, 10 complete control
[6] = Rate 62 g/ha, Postemergence, scale of 0 to 10 where 0 is no effect and 10 is complete control
[7] = Rate 125 g/ha, Postemergence, scale 0 to 10
[8] = Rate 62 g/ha, headed Pre-emergence (flood test species), scale 0 to 10 (0 no effect, 10 complete control)
[9] = Rate 125 g/ha, Pre-emergence, flood test species, scale 0 to 10 where 0 is no effect and 10 is complete control
[10] = Rate 250 g/ha, Pre-emergence, flood-test species, scale 0 to 10, 0 is no effect, 10 is complete control
[11] = Rate 500 g/ha, Pre-emergence, flood test species, scale 0 to 10 (0 no effect, 10 complete control)

CCCCCCCCCCCCCCCCCCCn1c(=O)on(C(=O)N(c2ccc(F)cc2)C(C)C)c1=O [Compound 253]
0: Sugarbeets plant response rating (sugar beet; [1]) | Sugarbeets plant response rating (sugar beet; [2]) | Plant response rating, Sugarbeets (sugar beet; [3]) | Sugarbeets plant response rating (sugar beet; [4]) | Sugarbeets plant response rating (sugar beet; [5]) | Cocklebur plant response rating (cocklebur; [1]) | Cocklebur plant response rating (cocklebur; [2]) | Plant response rating, Cocklebur (cocklebur; [3]) | Cocklebur plant response rating (cocklebur; [6]) | Cocklebur plant response rating (cocklebur; [7]) | Cocklebur plant response rating (cocklebur; [4]) | Plant response rating (0 to 10; 0 is no effect, 10 is complete control), Cocklebur (cocklebur; Rate 250 g/ha, Postemergence) | Cocklebur plant response rating (cocklebur; [5]) | Blackgrass plant response rating (blackgrass; [1]) | Blackgrass plant response rating (blackgrass; [2]) | Plant response rating, Blackgrass (blackgrass; [3]) | Blackgrass plant response rating (blackgrass; [6]) | Blackgrass plant response rating (blackgrass; [7]) | Blackgrass plant response rating (blackgrass; [4]) | Plant response rating (0 to 10; 0 is no effect, 10 is complete control), Blackgrass (blackgrass; Rate 250 g/ha, Postemergence) | Blackgrass plant response rating (blackgrass; [5]) | S. Flatsedge plant response rating (smallflower flatsedge; [8]) | S. Flatsedge plant response rating (smallflower flatsedge; [9]) | S. Flatsedge plant response rating (smallflower flatsedge; [10]) | S. Flatsedge plant response rating (smallflower flatsedge; [11]) | Rape plant response rating (rape; [1]) | Rape plant response rating (rape; [2]) | Plant response rating, Rape (rape; [3]) | Rape plant response rating (rape; [4]) | Plant response rating (0 to 10; 0 is no effect, 10 is complete control), Rape (rape; Rate 250 g/ha, Postemergence) | Rape plant response rating (rape; [5]) | Ducksalad plant response rating (duck salad; [8]) | Ducksalad plant response rating (duck salad; [9]) | Ducksalad plant response rating (duck salad; [10]) | Ducksalad plant response rating (duck salad; [11]) | Plant response rating, Nutsedge (purple nutsedge; [3]) | Plant response rating (0 to 10; 0 is no effect, 10 is complete control), Nutsedge (purple nutsedge; Rate 250 g/ha, Postemergence) | Nutsedge plant response rating (purple nutsedge; [5]) | Wheat plant response rating (wheat; [1]) | Wheat plant response rating (wheat; [2]) | Plant response rating, Wheat (wheat; [3]) | Wheat plant response rating (wheat; [4]) | Wheat plant response rating (wheat; [5]) | Rice plant response rating (rice; [8]) | Rice plant response rating (rice; [9]) | Rice plant response rating (rice; [10]) | Rice plant response rating (rice; [11]) | Barnyardgrass plant response rating (bamyardgrass; [8]) | Barnyardgrass plant response rating (bamyardgrass; [9]) | Barnyardgrass plant response rating (bamyardgrass; [10]) | Barnyardgrass plant response rating (bamyardgrass; [11]) | Wild oats plant response rating (wild oat; [1]) | Wild oats plant response rating (wild oat; [2]) | Plant response rating, Wild oats (wild oat; [3]) | Wild oats plant response rating (wild oat; [4]) | Wild oats plant response rating (wild oat; [5]) | Crabgrass plant response rating (crabgrass; [1]) | Crabgrass plant response rating (crabgrass; [2]) | Plant response rating, Crabgrass (crabgrass; [3]) | Crabgrass plant response rating (crabgrass; [4]) | Plant response rating (0 to 10; 0 is no effect, 10 is complete control), Crabgrass (crabgrass; Rate 250 g/ha, Postemergence) | Crabgrass plant response rating (crabgrass; [5]) | Morningglory plant response rating (morningglory; [1]) | Morningglory plant response rating (morningglory; [2]) | Plant response rating, Morningglory (morningglory; [3]) | Morningglory plant response rating (morningglory; [4]) | Plant response rating (0 to 10; 0 is no effect, 10 is complete control), Morningglory (morningglory; Rate 250 g/ha, Postemergence) | Morningglory plant response rating (morningglory; [5]) | B. signalgrass plant response rating (surinam grass; [1]) | B. signalgrass plant response rating (surinam grass; [2]) | Plant response rating, B. signalgrass (surinam grass; [3]) | B. signalgrass plant response rating (surinam grass; [6]) | B. signalgrass plant response rating (surinam grass; Rate 125 g/ha, Postemergence, scale 0 (no effect) to 10 (complete control)) | B. signalgrass plant response rating (surinam grass; [4]) | Plant response rating (0 to 10; 0 is no effect, 10 is complete control), B. signalgrass (surinam grass; Rate 250 g/ha, Postemergence) | B. signalgrass plant response rating (surinam grass; [5]) | Giant foxtail plant response rating (giant foxtail; [1]) | Giant foxtail plant response rating (giant foxtail; [2]) | Plant response rating, Giant foxtail (giant foxtail; [3]) | Giant foxtail plant response rating (giant foxtail; [4]) | Plant response rating (0 to 10; 0 is no effect, 10 is complete control), Giant foxtail (giant foxtail; Rate 250 g/ha, Postemergence) | Giant foxtail plant response rating (giant foxtail; [5]) | Bedstraw plant response rating (bedstraw; [1]) | Bedstraw plant response rating (bedstraw; [2]) | Plant response rating, Bedstraw (bedstraw; [3]) | Bedstraw plant response rating (bedstraw; [6]) | Bedstraw plant response rating (bedstraw; [7]) | Bedstraw plant response rating (bedstraw; [4]) | Plant response rating (0 to 10; 0 is no effect, 10 is complete control), Bedstraw (bedstraw; Rate 250 g/ha, Postemergence) | Bedstraw plant response rating (bedstraw; [5]) | Velvetleaf plant response rating (velvetleaf; [1]) | Velvetleaf plant response rating (velvetleaf; [2]) | Plant response rating, Velvetleaf (velvetleaf; [3]) | Velvetleaf plant response rating (velvetleaf; [4]) | Velvetleaf plant response rating (velvetleaf; [5]) | Soybean plant response rating (soybean; [1]) | Soybean plant response rating (soybean; [2]) | Plant response rating, Soybean (soybean; [3]) | Soybean plant response rating (soybean; [4]) | Soybean plant response rating (soybean; [5]) | Redroot pigweed plant response rating (pigweed; [1]) | Redroot pigweed plant response rating (pigweed; [2]) | Plant response rating, Redroot pigweed (pigweed; [3]) | Redroot pigweed plant response rating (pigweed; [4]) | Plant response rating (0 to 10; 0 is no effect, 10 is complete control), Redroot pigweed (pigweed; Rate 250 g/ha, Postemergence) | Redroot pigweed plant response rating (pigweed; [5]) | Corn plant response rating (corn; [1]) | Corn plant response rating (corn; [2]) | Plant response rating, Corn (corn; [3]) | Corn plant response rating (corn; [6]) | Corn plant response rating (corn; [7]) | Corn plant response rating (corn; [4]) | Plant response rating (0 to 10; 0 is no effect, 10 is complete control), Corn (corn; Rate 250 g/ha, Postemergence) | Corn plant response rating (corn; [5])

Source: patent US6737383B1, “Herbicidal oxadiazolidines” (priority 1999, dated 2004)
